Measurements published in patent US10130677B2, “Antimicrobial peptide and uses thereof” (priority 2013, dated 2018).
Read-outs that look alike come from different tables or passages of the source.

Experiments:
S. aureus JAR060131 = assay type: cell-based, Staphylococcus aureus; details: approx. 1 × 10^6 CFU/ml S. aureus JAR, within 2 hrs (Table 2)
Procedure: Polypeptides of the invention preferably have an in vitro IC99.9 of at most 150 μM after 2 hours at 37° C. against at least one microbial species in the presence of 50% plasma. Said IC99.9 is preferably determined in accordance with a method for determining the antimicrobial activity as described herein in the Examples. Said method described in the Examples for determining antimicrobial activity of microbes not associated with biofilm involves the mixing of 50 microL of a solution of a polypeptide in PBS with addition of human plasma at a final concentration of 50% and 20 microL of bacterial suspension with 5×10^6 CFU per mL of PBS in a well. After incubation of this mixture for 2 hours at 37° C. under shaking conditions, a sample is used for assessment of the bacterial counts. The lowest peptide concentration at which there is 99.9% of bacteria killed, is called the inhibitory concentration (IC) 99.9. Bacterial counts can be determined by manual CFU counting. For determining antibacterial activity for instance 1×10^6 CFU/ml bacteria are used, for determining antifungal activity for instance 1×10^5 cells/ml are used.
(§1) Peptides were incubated with 1×10^6 CFU/ml of a mid-logarithmic culture of S. aureus JAR060131, methicillin resistant S. aureus (MRSA) LUH14616, Staphylococcus epidermidis RP62a, and Pseudomonas aeruginosa PAO1 in PBS without or with addition of pooled human plasma (Sanquin, Amsterdam, the Netherlands) at a final concentration of 50%. Antimicrobial activity is expressed as the 99.9% lethal concentration (LC99.9), i.e., the lowest peptide concentration which killed ≥99.9% of bacteria after 2 hours of incubation at 37° C. under shaking conditions.

[1] = test system: Staphylococcus epidermidis RP62a; assay type: cell-based; details: 50% plasma
Procedure: as §1

A. niger PagsA-lux = experiment: Effect on fungal growth; assay type: cell-based, Aspergillus niger; details: for concentration inhibiting A. niger growth: 25% plasma, light micrographs only, 16 hours (FIG. 2)
Procedure: The effect of the peptides on fungal growth was assessed using Aspergillus niger. Peptides were incubated with 7.5×10^4 spores/ml of A. niger PagsA-lux in PBS without or with addition of pooled human plasma at a final concentration of 25%. As positive control, spores were treated with the antifungal caspofungin (Cancidas). Absorbance was measured over time and at 16 hours, fungal growth was visualized using light microscopy.

[2] = test system: S. aureus JAR060131 biofilm formation; assay type: cell-based, Staphylococcus aureus
Procedure: After solubilization with ethanol, the optical density at 590 nm is determined as a measure of biofilm mass.
Peptides were incubated with 1×10^8 CFU/ml of S. aureus JAR060131 in biofilm-adjusted BM2 in 96-wells polypropylene plates as described in Antimicrob Agents Chemother 2012; 56: 2696-2704. After 24 hours incubation at 37° C., planktonic bacteria were removed by four washes with PBS and biofilms were stained with crystal violet. After solubilization with ethanol, the optical density at 590 nm was determined as a measure of biofilm mass.
To assess the antibiofilm activity of the peptides in the presence of plasma, 96-wells polypropylene plates were coated with plasma by overnight incubation with 20% plasma at 4° C. Wells were washed once with sterile water and inoculated with S. aureus and peptides as described above.

[3] = test system: LPS (E. coli 054)-induced IL-12p40 production; experiment: LPS neutralization in whole human blood; assay type: cell-based; details: for IC90: LPS-induced IL-12p40, blood from two donors; for IC50: diluted whole human blood, 20 hours
Excerpt: (§2) The term “anti-inflammatory activity” of a polypeptide as used herein refers to inhibiting, reducing or preventing an inflammatory response in a subject that has been infected by microbes, e.g. bacteria, viruses, fungi, and/or parasites. Anti-inflammatory activity of polypeptides of the invention is achieved by inhibiting, reducing or preventing the release of pro-inflammatory microbial compounds, such as lipoteichoic acid (LTA), peptidoglycan (PG) and/or lipopolysaccharides (LPS). Anti-inflammatory activity can be measured by methods known in the art. Examples of such method are a LPS neutralization assay and a LTA neutralization assay as described in the Examples of this application. In such method, a polypeptide of the invention is mixed with a fixed concentration of LPS or LTA, such as 500 ng/ml LPS or 2 mg/ml LTA, and incubated for 30 min. Thereafter, these mixtures were added to diluted fresh human whole blood and 20 hours thereafter the level of cytokines (e.g. 1L-8 for LTA and 1L-12p40 for LPS) in the blood sample are measured by ELISA.
(§3) Peptides were pre-incubated with 500 ng/ml LPS (E. coli 054) or 2 mg/ml LTA (S. aureus, endotoxin-free) or 1×10^9 CFU/ml of UV-killed S. aureus JAR060131 for 30 min at 37° C. Diluted whole human blood was stimulated with the peptide-LPS/LTA/S. aureus mixtures for 20 hours at 37° C. IL-12p40 and IL-8 levels in supernatants were determined using ELISA.

[4] = test system: LTA (S. aureus)-induced IL-8 production; experiment: LTA neutralization in whole human blood; assay type: cell-based; details: for IC50: LTA-induced IL-8, blood from one donor
Excerpt: as §2, §3

[5] = test system: UV-killed S. aureus JAR060131-induced IL-8 production; experiment: S. aureus neutralization in whole human blood; assay type: cell-based; details: for IC50: UV-killed S. aureus JAR060131-induced IL-8, blood from one donor
Procedure: as §3

[6] = JAR060131 biofilm formation, 24 h

Substance	IC99.9 (S. aureus JAR060131; 50% plasma)	IC99.9 (S. aureus JAR060131; PBS)	higher bactericidal activity as compared to OP-145 [1]	concentration inhibiting A. niger growth (A. niger PagsA-lux)	IC50 [2, 6]	concentration needed to inhibit biofilm formation for 50%, relative to OP-145 and P159 ([2]; plasma-coated wells (FIG. 3B))	IC90 [3]	fold increased LTA-neutralizing ability versus OP-145 [4]	IC50 [4]	fold higher concentration than OP-145 needed to inhibit S. aureus-induced IL-8 production for >50% [5]	IC50 [5]	fold lower antifungal activity as compared to OP-145 (A. niger PagsA-lux; PBS)	IC50 ([2]; plasma-coated wells (FIG. 3B), read-out: concentration inhibiting biofilm formation for 50%)	IC50 [3]	fold higher antifungal activity as compared to OP-145 (A. niger PagsA-lux; PBS)	concentration inhibiting A. niger growth (by >99.9%) (A. niger PagsA-lux; PBS, optical density (FIG. 1))
Ac-LKRLYKRLAKLIKRLYRYLKKPVR-NH2 [Peptide P145, J LKRLYKRLAKLIKRLYRYLKKPVR B]	25.6 µM	1.6 µM	43 fold	102.4 µM	6400 nM	two-fold higher concentration	0.75 nM	4 fold	0.195 µM	8 fold	1.56 µM					
Ac-LKRLYKRVFRLLKRYYRQLRRPVR-NH2 [Peptide P159, J LKRLYKRVFRLLKRYYRQLRRPVR B]	12.8 µM	1.6 µM	43 fold	102.4 µM	12800 nM		0.25 nM	4 fold	0.195 µM		0.195 µM	2 fold	3200 nM	0.05 nM		
Ac-LKRVWKRVFKLLKRYWRQLKKPVR-NH2 [Peptide P148, J LKRVWKRVFKLLKRYWRQLKKPVR B]	12.8 µM	1.6 µM	43 fold	102.4 µM	12800 nM	two-fold higher concentration	0.25 nM	4 fold	0.195 µM	8 fold	1.56 µM			0.03 nM	4 fold	0.8 µM
